In assay [1] the test system is anti-HBsAG antibody. Put plainly: Fluorescence immunoassay with FAM switching peptide and TQ2 quenching material (FIGS. 9-12). Type of assay: binding. As to conditions: for fluorescence intensity, antigen selectivity: HBsAg. An excerpt:
FIG. 9 is a graph illustrating a fluorescence intensity measured after reacting an anti-HBSAG antibody to which an H2 switching peptide of Example 2 and a Tide-Quencher 2 (TQ2) quenching material are bound, with HBsAg, Inf A, Inf B (Florida), Inf B (Tokio), and PBS sample solutions, respectively.
FIG. 10 is a graph illustrating a fluorescence intensity measured after reacting the anti-HBsAG antibody to which the H2 switching peptide of Example 2 and the Tide-Quencher 2 (TQ2) quenching material are bound, with detection sample solutions each containing various concentrations of HBsAg antigens.
FIG. 11 is a graph illustrating a fluorescence intensity measured after binding the anti-HBsAG antibody to which the H2 switching peptide of Example 2 and the Tide-Quencher 2 (TQ2) quenching material are bound, to protein A beads and reacting it with detection sample solutions containing various concentrations of the HBsAg antigens.
FIG. 12 is graphs illustrating a fluorescence intensity measured after reacting the anti-HBsAG antibody to which one of the L1, H1, L2 and H2 switching peptides of Example 2 and the TQ2 quenching material is bound, with HRP, CRP, HBsAg, and hCG sample solutions, respectively.

For a further assay, the system named is L2 peptide. Put plainly: FRET test of specific interaction between H1 and L2 peptides on microplate (FIG. 4A). Format: binding. Conditions: H1 (TAMRA) and L2 (FAM); H1 concentration varied. From the text:
(§1) FIG. 4A is diagrams illustrating a method for confirming a specific interaction between L1 and H2 peptides and a specific interaction between L2 and H1 peptides and the measurement results thereof, and FIG. 4B is diagrams for explaining a specific interaction between L1 and H2 peptides and a specific interaction between L2 and H1 peptides analyzed using PyMOL software. Here, at the ends of the L1 and L2 peptides, a first fluorescent label, FAM (λex=488 nm, λem=532 nm) was modified, and at the ends of the H1 and H2 peptides, a second fluorescent label, TAMRA (ex=532 nm, hem=570 nm) was modified. Meanwhile, the first peptide (L1 or L2) was immobilized on a parylene-H-coated microplate through a covalent bond between a formyl group of parylene-H and a primary amine group of a lysine residue in the peptide, and a second peptide (H2 or H1) was incubated with the immobilized first peptide (L1 or L2) to allow specific interactions between them.

In assay [2] the test system is rabbit anti-HRP antibodies. Put plainly: Papain treatment of immobilized antibody with bound switching peptide (FIG. 7). Type of assay: binding. Conditions: after papain treatment compared to before. An excerpt: FIG. 7A is a schematic diagram illustrating states before and after treatment of the antibody to which the four types of peptides of Example 1 were bound, respectively, with papain, which is a protease, and FIG. 7B is graphs illustrating a fluorescence intensity measured at a bottom (B) of the microplate and in a solution(S) after the papain treatment. In the case of this experiment, after immobilization of the antibodies (rabbit anti-HRP antibodies) on the microplate, binding between the antibody and the switching peptide was induced by treatment with a fluorescently labeled switching peptide, the unbound switching peptide was removed, and then the Fab region was hydrolyzed from the immobilized antibodies by adding papain, which is a protease.
Referring to FIG. 7A, the fluorescence at the bottom (B) of the microplate is expected to decrease after the papain reaction because the fluorescently labeled switching peptides are bound to the Fab region of antibodies, and the fluorescence in the solution is expected to increase because the Fab region to which the switching peptide is bound is hydrolyzed and dissolved into the solution. This prediction is proven to be true from the graphs of FIG. 7B.

The next assay concerns Anti-HRP antibody(r). Nature of the assay: Release of fluorescently labeled switching peptide from immobilized antibody on antigen binding (Table 4). As to conditions: after treatment with antigen HRP. More on the design: species or system rabbit.
In another assay the test system is Anti-HBsAg antibody(g). The description is as above. Conditions: after treatment with antigen HBsAg. Further details: species or system goat.
The test system of the next assay is Anti-hCG antibody(m). The assay is described as above. More on the design: species or system mouse.
Another assay concerns Anti-CRP antibody(r). The assay is described as above. More on the design: species or system rabbit.
For assay [3], the system named is anti-HRP antibody from a rabbit. Put plainly: One-step immunoassay with varying HRP concentration (FIG. 8). Type of assay: binding. As to conditions: HRP 0.3 to 100 μM (FIG. 8B). An excerpt: FIG. 8A is a schematic diagram for explaining an immunoassay method using fluorescently labeled peptide compounds of Example 1, and FIGS. 8B and 8C are graphs illustrating the fluorescence intensity in a solution and at a bottom of the microplate depending on a concentration of the antigen measured by the immunoassay method illustrated in FIG. 8A. In this experiment, an anti-HRP antibody from a rabbit immobilized on a microplate was used as the binding antibody and HRP was used as the antigen.

The next assay has as its system H2 peptide. Nature of the assay: FRET test of specific interaction between L1 and H2 peptides on microplate (FIG. 4A). Format: binding. Conditions: L1 (FAM) and H2 (TAMRA); L1 concentration varied.
Excerpt: as §1

In assay [4] the test system is anti-HBsAG antibody. Put plainly: Graphene-quenched immunoassay with TAMRA L1 switching peptide (FIG. 13). Format: binding. As to conditions: L1 labeled with TAMRA; graphene quenching material. From the text: FIG. 13 is graphs illustrating a fluorescence intensity measured after binding an anti-HBsAg antibody to which an L1 switching peptide labeled with a TAMRA fluorescent label is bound, to a graphene quenching material and reacting it with an HBsAg sample solution.

A further assay has as its system anti-inf A antibody. Nature of the assay: Graphene-quenched immunoassay with TAMRA L1 switching peptide (FIG. 14). Type of assay: binding. As to conditions: L1 labeled with TAMRA; graphene quenching material. An excerpt: FIG. 14 is a graph illustrating a fluorescence intensity measured after binding an anti-inf A antibody to which an L1 switching peptide labeled with a TAMRA fluorescent label is bound, to a graphene quenching material and reacting it with an Influenza A sample solution.

The test system of the next assay is anti-SARS-COV-2 antibody. Put plainly: Graphene-quenched immunoassay with TAMRA L1 switching peptide (FIG. 15). Conditions: L1 labeled with TAMRA; graphene quenching material. Format: binding. An excerpt: FIG. 15 is a graph illustrating a fluorescence intensity measured after binding an anti-SARS-COV-2 antibody to which an L1 switching peptide labeled with a TAMRA fluorescent label is bound, to a graphene quenching material and reacting it with a SARS-CoV-2 sample solution.

The next assay has as its system Inf-A. Put plainly: One-step immunoassay detection of Inf-A with switching-peptide-bound binding antibody (FIG. 18, 20B). Further details: species or system Influenza A. Conditions: anti-Inf-A antibody bound to the peptide, treated with Inf-A, CRP, BSA.
A further assay concerns Inf-B. Put plainly: One-step immunoassay detection of Inf-B with switching-peptide-bound binding antibody (FIG. 19, 20D). As to conditions: antibody bound to the peptide, treated with Inf-A, CRP, BSA. An excerpt: Therefore, an antibody bound to the L1 peptide or the H2 peptide may be used for selective detection of the Inf-B.
Therefore, binding antibodies bound to the two types of peptides may have similar responses upon detection of Inf-A.
In addition, since it can be confirmed that the baseline is maintained in the experiment with CoV strain 229E, which is a negative control, the immunoassay based on the two types of binding antibodies may be used to detect Inf-B in actual samples.
Therefore, the immunoassay device using the switching peptide according to the present disclosure may sensitively detect Inf-B in a much wider detection range than conventional rapid tests, and the one-step immunoassay method according to the present disclosure may be used for much more sensitive detection of Inf-A and Inf-B in the entire detection range compared to conventional rapid tests.

Where [5] appears, read: FAM switching peptides of Example 2, TQ2, HRP, CRP, hCG sample solutions (FIG. 12).

Ends that are not written are not given here. FAM = carboxyfluorescein (FAM) fluorescent label

For “FAM-VYYCAREPTGTGIYFDVWGK ({FAM}-VYYCAREPTGTGIYFDVWGK) [H2 switching peptide of Example 2]”, the “fluorescence intensity, antigen selectivity” value with anti-HBsAG antibody [1] (TQ2 quencher, Inf A, Inf B (Florida), Inf B (Tokio), PBS sample solutions (FIG. 9)) is on record as “high intensity fluorescence was measured only for the HBsAg antigen”. Besides, the “fluorescence intensity versus HBsAg concentration” value in the assay on anti-HBsAG antibody [1] (TQ2 quencher, antibody bound to protein A beads (FIG. 11)) was “increased as the concentration of HBsAg antigens of the detection sample solution increased”.
As to “SYWIHWVKQRPGQGLEWIGE [H1, SYWIH WVKQR PGQGL EWIGE]”, in the assay with L2 peptide, the FRET intensity result is reported as “FRET intensity was observed to increase with increasing the concentration of the H1 peptide”. Further, the “increase of fluorescence intensity in the solution” value (shortened to “increase of fluorescence intensity”) in [2] is 2,184%. For the same substance, the “fluorescence intensity at the bottom of the plate decreased by” value was found to be 12.3% in the assay on Anti-HRP antibody(r) and 41.1% in the assay with Anti-HBsAg antibody(g). Besides, the results for the “In solution (S), Change (%)” value in the assay on Anti-hCG antibody(m) and with Anti-CRP antibody(r) were “+206%” and “+152%”, respectively. Besides, the “fluorescence intensity in the solution versus antigen concentration” value in assay [3] is reported as “increase in the fluorescence intensity in the solution was observed depending on the concentration of the antigen”. Further, in the assay on anti-HBsAG antibody [1] (setting [5]), the “fluorescence intensity, antigen selectivity” value is listed as “high intensity fluorescence was measured only for the HBsAg antigen”.
Turning to “TYLEWYPQKPGQSPKLLIYK [L1, TYLEW YPQKP GQSPK LLIYK]”, the FRET intensity result with H2 peptide is recorded as “FRET intensity increased with increasing the concentration of the L1 peptide”. In addition, in assay [2], the “increase of fluorescence intensity” value is given as 1,032%. Also, the “fluorescence intensity at the bottom of the plate decreased by” value turned out to be 12.7% with Anti-HRP antibody(r) and 48.7% in the assay with Anti-HBsAg antibody(g). Besides, the “In solution (S), Change (%)” value was “+187%” in the assay with Anti-hCG antibody(m) and “+778%” in the assay on Anti-CRP antibody(r). Further, in assay [3], the “fluorescence intensity in the solution versus antigen concentration” value is “increase in the fluorescence intensity in the solution was observed depending on the concentration of the antigen”. For the same substance, in the assay with anti-HBsAG antibody [1] (setting [5]), the “fluorescence intensity, antigen selectivity” value was “high intensity fluorescence was measured only for the HBsAg antigen”. Further, the “fluorescence intensity versus HBsAg concentration” value in the assay with anti-HBsAG antibody [4] is listed as “increased almost linearly as the concentration of the HBsAg antigen contained in the HBsAg sample solution increased”. The “fluorescence intensity versus Influenza A antigen concentration” value in the assay with anti-inf A antibody is given as “increased almost linearly as the concentration of the Influenza A antigen contained in the Influenza A sample solution increased”. In addition, in the assay on anti-SARS-COV-2 antibody, the “fluorescence intensity versus SARS-COV-2 antigen concentration” value was “increased as the concentration of the SARS-COV-2 antigen contained in the SARS-COV-2 sample solution increased”. Moreover, the figures for the “fluorescence signal, selectivity” value in the assay on Inf-A and with Inf-B were “significantly higher fluorescence signal is generated when the Inf-A is treated” and “significantly higher fluorescence signal was generated when the Inf-B is treated”, respectively.
As for “VYYCAREPTGTGIYFDVWGK [H2, VYYCA REPTG TGIYF DVWGK]”, in assay [2], the “increase of fluorescence intensity” value is given as 2,356%. Moreover, the “fluorescence intensity at the bottom of the plate decreased by” value is given as 14.8% in the assay with Anti-HRP antibody(r) and 63.9% in the assay with Anti-HBsAg antibody(g). Moreover, the “In solution (S), Change (%)” value in the assay on Anti-hCG antibody(m) is given as “+416%”; with Anti-CRP antibody(r), “+677%”. The “fluorescence intensity in the solution versus antigen concentration” value in assay [3] is given as “increase in the fluorescence intensity in the solution was observed depending on the concentration of the antigen”. Besides, the “specificity for the antigen compared with other switching peptides” value in the assay on anti-HBsAG antibody [1] (FAM switching peptides of Example 2, TQ2 (FIG. 12)) was “specificity for the antigen was relatively low”. Moreover, the “fluorescence intensity, antigen selectivity” value in the assay with anti-HBsAG antibody [1] (setting [5]) is given as “high intensity fluorescence was measured only for the HBsAg antigen”. Also, the “fluorescence signal, selectivity” value in the assay on Inf-A is on record as “significantly higher fluorescence signal is generated when the Inf-A is treated”; in the assay with Inf-B, “significantly higher fluorescence signal was generated when the Inf-B is treated”.
Take VYYCFQGSHVPFTK [L2, VYYCF QGSHV PFTK]: the “increase of fluorescence intensity” value in assay [2] is on record as 2,452%. Further, the “fluorescence intensity at the bottom of the plate decreased by” value is 25.5% in the assay on Anti-HRP antibody(r) and 35.2% in the assay on Anti-HBsAg antibody(g). Besides, the “In solution (S), Change (%)” value in the assay on Anti-hCG antibody(m) is “+456%”; in the assay on Anti-CRP antibody(r) it was “+883%”. Besides, the “fluorescence intensity in the solution versus antigen concentration” value in [3] is “increase in the fluorescence intensity in the solution was observed depending on the concentration of the antigen”. Further, the “fluorescence intensity, antigen selectivity” value in the assay with anti-HBsAG antibody [1] (setting [5]) was “high intensity fluorescence was measured only for the HBsAg antigen”.
